Assay results from publication PMC5010535 (Cancer research, 2016).

Tests used:
LNCaP-abl cells [1] = experiment: Cell proliferation assay, LNCaP-abl cells; format: cell-based; details: 72 hours
in vitro [2] = details: rat, liver microsomes
LNCaP-abl cells [3] = experiment: Clonogenic assay, LNCaP-abl cells; format: cell-based; details: 10 μM, 10 days
in vitro [4] = details: liver microsomes
UBE2C = UBE2C mRNA expression in LNCaP-95 cells; format: cell-based; details: 10 μM, 48 hours

SMILES: C#C[C@]1(O)CC[C@H]2[C@@H]3CCC4=CC(=O)CC[C@]4(C)[C@H]3CC[C@@]21C [ethisterone]
- EC50 (concentration required to inhibit the proliferation by 50%) (LNCaP-abl cells [1]; highest concentration tested 100 μM): failed to reach 50% inhibition at the maximal concentration tested

SMILES: CC(C)NCC(O)COc1cccc2ccccc12 (stereo not shown) [Propranolol, propranolol]
- remaining at 1 h, 1.09 µM (in vitro [2]): 58.7%

SMILES: CNC(=O)c1ccc(N2C(=S)N(c3cnc(C#N)c(C(F)(F)F)c3)C(=O)C23CCC3)cc1F [ARN509]
- effect on LNCaP-abl cellular proliferation (LNCaP-abl cells [1]; 10 μM): not growth inhibited
- effect on colony formation (LNCaP-abl cells [3]): Neither enzalutamide nor ARN509 could effectively prevent colony formation

SMILES: CCOc1ccc(NC(C)=O)cc1 [phenacetin]
- half-life at 1.09 µM (in vitro [4]): ~1.33 h

SMILES: CNC(=O)c1ccc(N2C(=S)N(c3ccc(C#N)c(C(F)(F)F)c3)C(=O)C2(C)C)cc1F [enzalutamide]
- UBE2C mRNA expression (UBE2C): significantly increased UBE2C mRNA expression
- effect on colony formation (LNCaP-abl cells [3]): Neither enzalutamide nor ARN509 could effectively prevent colony formation
